Legend:
[1] = test system: CD1 male mice; assay: radiant heat to the hindpaw (Hargreaves test), baseline thresholds; format: in vivo
[2] = test system: CD1 male mice; assay: formalin test of pain behavior
[3] = test system: CD1 male mice; assay: spared nerve injury (SNI) model of neuropathic pain; format: in vivo
Experimental: Spared nerve injury (SNI) model of neuropathic pain. A model of partial sciatic nerve injury was used in which the peroneal and sural nerves were selectively ligated and cut, sparing the tibial nerve. […] Animals were injected in a blinded cross-over manner, in which half of the animals received sumatriptan on one day and saline on the other.

[4] = test system: CD1 male mice; assay: hot plate test of acute thermal pain; format: in vivo
[5] = test system: CD1 male mice; assay: mechanical nociceptive thresholds with calibrated monofilaments, baseline; format: in vivo
[6] = test system: CD1 male mice; assay: carrageenan-induced thermal and mechanical hypersensitivity
[7] = test system: CD1 male mice; assay: CFA-induced persistent inflammation, mechanical hyperalgesia; format: in vivo; details: IT 0.0006, 0.006, 0.01, 0.06 μg; days 3-7 after CFA
Experimental: Intrathecal sumatriptan reduces the hyperalgesic effects of persistent inflammation induced by Complete Freunds Agent (CFA). CFA injection produces a prolonged period of mechanical hyperalgesia that persists and remains stable during days 3-7 after injection into the plantar surface of the hindpaw. CD1 male mice were used. Mechanical thresholds were tested on the first day, prior to a single injection of CFA to a hindpaw (baseline). By day 3 after CFA injection animals were hyperalgesic (post CFA 3d). Animals were tested for a sumatriptan response on 4 successive days (days 3-6) after CFA. A mechanical threshold was determined on each successive day prior to the administration of intrathecal sumatriptan. Doses of sumatriptan tested are: 0.0006 μg, 0.006 μg, 0.01 μg, and 0.06 μg, all in the volume of 5 μl. Mechanical thresholds were then determined at 30 and 60 min after the injection. The average withdrawal thresholds for the CFA-treated hindpaw at […] after the administration of each dose of sumatriptan was measured. The antihyperalgesic effect of each of these doses, expressed as a percent of the pre-injection threshold for that day, were compared to the original baseline.
Persistent inflammation after CFA. […] Hindpaw swelling pre- and 72 hours postinjection was measured to confirm the effects of the injection.

[8] = test system: CD1 male mice; assay: Rotarod test for sedative and sensorimotor effects; format: in vivo; details: SC 300, 600 μg/kg or IT 0.06, 0.60 μg; one hour after dosing
Experimental: To screen for sedative and other adverse sensorimotor effects, mice were tested on a Rotarod (Ugo Basile, Comerio, Italy). The time in which mice were able to balance on a rod rotating on its axis at a constant velocity of 15 rpm were measured. The total duration of each trial was 300 sec. On the day prior to the test, animals accommodated to the task with three separate training trials. […] A single trial was used for each dose and route; reported times represent % change from the baseline value for each animal ±SEM.

[9] = sumatriptan SC 300, 600 μg/kg or IT 0.06, 0.60 μg, unstimulated baseline state
[10] = intrathecal, 24 hours after carrageenan to hindpaw, dose-dependent

## CN1CC[C@]23c4c5ccc(O)c4O[C@H]2[C@@H](O)C=C[C@H]3[C@H]1C5.O=S(=O)(O)O [morphine, morphine sulfate]
[1]; positive control, 10 nmol IT
  Hargreaves test analgesic response: robust analgesic response
[2]; positive control, 10 nmol IT
  formalin test, first phase pain behavior: eliminated
  formalin test, second phase pain behavior: eliminated
[3]; IT morphine
  analgesia in SNI model: profound analgesia, to cutoff latencies
[4]; positive control, 10 nmol IT
  hot-plate test analgesic response: robust analgesic response
[5]; positive control, 10 nmol IT
  mechanical pain test analgesic response: robust analgesic response
[6]; IT morphine
  analgesia in carrageenan model: profound analgesia, with all animals reaching the cutoff latency

## CNS(=O)(=O)Cc1ccc2[nH]cc(CCN(C)C)c2c1 [sumatriptan]
[7]
  mechanical hypersensitivity after intraplantar CFA: reduced mechanical hypersensitivity
[1]; [9]
  Hargreaves test (radiant heat to hindpaw) threshold: no significant changes in threshold
[8]
  sedation or sensorimotor incoordination on the Rotarod test: no evidence of confounding deficits due to sedation or sensorimotor incoordination
[2]; IT 0.006, 0.06, 0.60 μg one hour before formalin, dose-dependent
  formalin test, second phase (11-60 min) pain behavior: profound reduction of pain behavior
[2]; systemic (SC) 300, 600 μg/kg one hour before formalin
  formalin test, second phase pain behavior: modestly reduced second phase behaviors, but only at the highest dose tested
[3]; SNI 7 d, regardless of dose or route of delivery, IT 0.6 μg, 30-120 min after drug
  mechanical hypersensitivity produced by nerve injury (SNI): completely without effect
[3]; SNI model, IT sumatriptan
  nociceptive thresholds of unaffected contralateral leg: unaffected
[4]; [9]
  hot-plate test threshold (latency): no significant changes in threshold
[5]; [9]
  mechanical pain threshold, calibrated monofilaments: no significant changes in threshold
[6]; IT sumatriptan, carrageenan model
  time after injection at which antinociceptive effect was significant: 30 min
[6]; SC sumatriptan
  behavior after carrageenan, SC drug compared with control IT saline: did not differ
[6]; carrageenan model, sumatriptan
  pain thresholds of unstimulated contralateral hindlimb: did not affect pain thresholds
[6]; intrathecal sumatriptan, carrageenan-treated hindpaw
  thermal latencies versus baseline (analgesic effect beyond reversal of hyperalgesia): latencies exceeded those at baseline
[6]; [10]
  mechanical hypersensitivity after carrageenan: completely reversed
  thermal hypersensitivity after carrageenan: completely reversed
